≈ marks a conversion by molar mass, not a printed value.
Assays:
[1] = system: vancomycin-susceptible enterococci; assay: broth micro-dilution, mean geometric MIC; format: cell-based, Enterococcus faecium and Enterococcus faecalis; settings: enterococci, 24-hour incubation
[2] = system: Staphylococcus aureus SA1199; assay: broth micro-dilution MIC; format: cell-based
Protocol: (§1) The MIC's were determined using a standard broth micro-dilution assay.

[3] = system: Staphylococcus aureus 491; assay: broth micro-dilution MIC; format: cell-based
Protocol: as §1

Entercoccus faecium 276 = assay: broth micro-dilution MIC; format: cell-based
Protocol: as §1

[4] = system: Staphylococcus aureus X778; assay: broth micro-dilution MIC; format: cell-based
Protocol: as §1

[5] = system: Staphylococcus aureus 447; assay: broth micro-dilution MIC; format: cell-based
Protocol: as §1

[6] = system: Staphylococcus aureus SA1199A; assay: broth micro-dilution MIC; format: cell-based
Protocol: as §1

[7] = system: Staphylococcus aureus 489; assay: broth micro-dilution MIC; format: cell-based
Protocol: as §1

[8] = system: Staphylococcus aureus 446; assay: broth micro-dilution MIC; format: cell-based
Protocol: as §1

[9] = system: Staphylococcus aureus X400; assay: broth micro-dilution MIC; format: cell-based
Protocol: as §1

[10] = system: Entercoccus faecium 180-1; assay: broth micro-dilution MIC; format: cell-based
Protocol: as §1

[11] = system: Streptococcus pyogenes C203; assay: broth micro-dilution MIC; format: cell-based
Protocol: as §1

[12] = system: vancomycin-resistant enterococci; assay: broth micro-dilution, mean geometric MIC; format: cell-based, Enterococcus faecium and Enterococcus faecalis; settings: enterococci, 24-hour incubation
[13] = system: Staphylococcus aureus S13E; format: cell-based
Protocol: as §1

[14] = system: Staphylococcus aureus SA1199B; format: cell-based
Protocol: as §1

Escherichia coli EC14 = assay: broth micro-dilution MIC; format: cell-based
Protocol: (§2) The formula I compounds have in vitro and in vivo activity against Gram-positive pathogenic bacteria. The MIC's were determined using a standard broth micro-dilution assay.

[15] = system: Enterococcus gallinarum 245; assay: broth micro-dilution MIC; format: cell-based; settings: Enterococcus gallinarum 245
Protocol: as §2

Entercoccus faecium 180 = assay: broth micro-dilution MIC; format: cell-based; settings: Entercoccus faecium 180
Protocol: as §2

Entercoccus faecium 2041 = assay: broth micro-dilution MIC; format: cell-based; settings: Entercoccus faecium 2041
Protocol: as §2

[16] = system: Streptococcus pneumoniae P1; assay: broth micro-dilution MIC; format: cell-based
Protocol: as §2

[17] = system: Staphylococcus haemolyticus 415; assay: broth micro-dilution MIC; format: cell-based
Protocol: as §2

[18] = system: Staphylococcus epidermidis 270; assay: broth micro-dilution MIC; format: cell-based
Protocol: as §2

[19] = system: Staphylococcus haemolyticus 105; assay: broth micro-dilution MIC; format: cell-based
Protocol: as §2

[20] = system: Haemophilus influenzae RD; assay: broth micro-dilution MIC; format: cell-based; settings: Haemophilus influenzae RD
Protocol: as §2

| Structure (SMILES) | mean geometric MIC, Vancomycin Sensitive Strains [1] | MIC [2] | MIC [3] | MIC (Entercoccus faecium 276) | MIC [4] | MIC [5] | MIC [6] | MIC [7] | MIC [8] | MIC [9] | MIC [10] | MIC [11] | mean geometric MIC, Vancomycin Resistant Strains [12] | MIC [13] | MIC [14] | MIC (Escherichia coli EC14) | MIC [15] | MIC (Entercoccus faecium 180) | MIC (Entercoccus faecium 2041) | MIC [16] | also measured |
| --- | --- | --- | --- | --- | --- | --- | --- | --- | --- | --- | --- | --- | --- | --- | --- | --- | --- | --- | --- | --- | --- |
| CC(C)CC(C(=O)NC1C(=O)NC(CC(N)=O)C(=O)NC2C(=O)NC3C(=O)NC(C(=O)NC(C(=O)O)c4cc(O)cc(O)c4-c4cc3ccc4O)C(OC3CC(C)(N)C(O)C(C)O3)c3ccc(c(Cl)c3)Oc3cc2cc(c3OC2OC(CO)C(O)C(O)C2OC2CC(C)(NCc3cc4ccccc4s3)C(O)C(C)O2)Oc2ccc(cc2Cl)C1O)N(C)Cc1cc2ccccc2s1 (stereo not drawn) [Compound 276] | 1.3 µg/mL | 1 µg/mL (≈ 0.531 µM) | 1 µg/mL (≈ 0.531 µM) | 1 µg/mL (≈ 0.531 µM) | 1 µg/mL (≈ 0.531 µM) | 4 µg/mL (≈ 2.12 µM) | 0.25 µg/mL (≈ 0.133 µM) | 1 µg/mL (≈ 0.531 µM) | 1 µg/mL (≈ 0.531 µM) | 2 µg/mL (≈ 1.06 µM) | 0.25 µg/mL (≈ 0.133 µM) | ≤ 0.06 µg/mL | 23 µg/mL | 2 µg/mL (≈ 1.06 µM) | 1 µg/mL (≈ 0.531 µM) | > 64 µg/mL | 4 µg/mL (≈ 2.12 µM) | 4 µg/mL (≈ 2.12 µM) | 1 µg/mL (≈ 0.531 µM) | ≤ 0.06 µg/mL | MIC [17]: 4 µg/mL (≈ 2.12 µM); MIC [18]: 4 µg/mL (≈ 2.12 µM); MIC [19]: 4 µg/mL (≈ 2.12 µM); MIC [20]: > 64 µg/mL |
| COc1ccc2nc(-c3ccccc3)cc(CNC3(C)CC(OC4C(Oc5c6cc7cc5Oc5ccc(cc5Cl)C(OC5CC(C)(N)C(O)C(C)O5)C5NC(=O)C(NC(=O)C7NC(=O)C(CC(N)=O)NC(=O)C(NC(=O)C(CC(C)C)N(C)Cc7cc(-c8ccccc8)nc8ccc(OC)cc78)C(O)c7ccc(c(Cl)c7)O6)c6ccc(O)c(c6)-c6c(O)cc(O)cc6C(C(=O)O)NC5=O)OC(CO)C(O)C4O)OC(C)C3O)c2c1 (stereo not drawn) [Compound 277] | 1.1 µg/mL | 16 µg/mL (≈ 7.67 µM) | 8 µg/mL (≈ 3.83 µM) | 1 µg/mL (≈ 0.479 µM) | 32 µg/mL (≈ 15.3 µM) | > 64 µg/mL | 1 µg/mL (≈ 0.479 µM) | 16 µg/mL (≈ 7.67 µM) | 64 µg/mL (≈ 30.7 µM) | 32 µg/mL (≈ 15.3 µM) | 0.5 µg/mL (≈ 0.24 µM) | ≤ 0.06 µg/mL | 32 µg/mL | 16 µg/mL (≈ 7.67 µM) | 16 µg/mL (≈ 7.67 µM) | > 64 µg/mL | > 64 µg/mL | 2 µg/mL (≈ 0.958 µM) | 2 µg/mL (≈ 0.958 µM) | ≤ 0.06 µg/mL | MIC [17]: > 64 µg/mL; MIC [18]: 16 µg/mL (≈ 7.67 µM); MIC [19]: > 64 µg/mL; MIC [20]: > 64 µg/mL |
| CNC(CC(C)C)C(=O)NC1C(=O)NC(CC(N)=O)C(=O)NC2C(=O)NC3C(=O)NC(C(=O)NC(C(=O)O)c4cc(O)cc(O)c4-c4cc3ccc4O)C(OC3CC(C)(NCc4ccc(SC)cc4)C(O)C(C)O3)c3ccc(c(Cl)c3)Oc3cc2cc(c3OC2OC(CO)C(O)C(O)C2OC2CC(C)(NCc3ccc(SC)cc3)C(O)C(C)O2)Oc2ccc(cc2Cl)C1O (stereo not drawn) [Compound 278] | 0.29 µg/mL | 0.25 µg/mL (≈ 0.134 µM) | 1 µg/mL (≈ 0.536 µM) | 0.25 µg/mL (≈ 0.134 µM) | 0.5 µg/mL (≈ 0.268 µM) | 2 µg/mL (≈ 1.07 µM) | 1 µg/mL (≈ 0.536 µM) | 0.5 µg/mL (≈ 0.268 µM) | 1 µg/mL (≈ 0.536 µM) | 0.25 µg/mL (≈ 0.134 µM) | ≤ 0.06 µg/mL | ≤ 0.06 µg/mL | 8 µg/mL | 1 µg/mL (≈ 0.536 µM) | 0.5 µg/mL (≈ 0.268 µM) | > 64 µg/mL | 2 µg/mL (≈ 1.07 µM) | 1 µg/mL (≈ 0.536 µM) | 0.125 µg/mL (≈ 0.067 µM) | ≤ 0.06 µg/mL | MIC [17]: 2 µg/mL (≈ 1.07 µM); MIC [18]: 1 µg/mL (≈ 0.536 µM); MIC [19]: 0.5 µg/mL (≈ 0.268 µM); MIC [20]: > 64 µg/mL |
| CC(C)CC(C(=O)NC1C(=O)NC(CC(N)=O)C(=O)NC2C(=O)NC3C(=O)NC(C(=O)NC(C(=O)O)c4cc(O)cc(O)c4-c4cc3ccc4O)C(OC3CC(C)(N)C(O)C(C)O3)c3ccc(c(Cl)c3)Oc3cc2cc(c3OC2OC(CO)C(O)C(O)C2OC2CC(C)(NCc3cccnc3)C(O)C(C)O2)Oc2ccc(cc2Cl)C1O)N(C)Cc1cccnc1 (stereo not drawn) [Compound 280] | 7 µg/mL | 2 µg/mL (≈ 1.13 µM) | 2 µg/mL (≈ 1.13 µM) | 0.5 µg/mL (≈ 0.282 µM) | 0.5 µg/mL (≈ 0.282 µM) | 8 µg/mL (≈ 4.51 µM) | 0.5 µg/mL (≈ 0.282 µM) | 1 µg/mL (≈ 0.563 µM) | 2 µg/mL (≈ 1.13 µM) | 1 µg/mL (≈ 0.563 µM) | 0.25 µg/mL (≈ 0.141 µM) | 0.125 µg/mL (≈ 0.0704 µM) | > 128 µg/mL | 2 µg/mL (≈ 1.13 µM) | 0.5 µg/mL (≈ 0.282 µM) | > 64 µg/mL | 32 µg/mL (≈ 18 µM) | 32 µg/mL (≈ 18 µM) | 1 µg/mL (≈ 0.563 µM) | 0.125 µg/mL (≈ 0.0704 µM) | MIC [17]: 32 µg/mL (≈ 18 µM); MIC [18]: 8 µg/mL (≈ 4.51 µM); MIC [19]: > 64 µg/mL; MIC [20]: > 64 µg/mL |
| CC(C)CC(C(=O)NC1C(=O)NC(CC(N)=O)C(=O)NC2C(=O)NC3C(=O)NC(C(=O)NC(C(=O)O)c4cc(O)cc(O)c4-c4cc3ccc4O)C(OC3CC(C)(N)C(O)C(C)O3)c3ccc(c(Cl)c3)Oc3cc2cc(c3OC2OC(CO)C(O)C(O)C2OC2CC(C)(NCc3ccccn3)C(O)C(C)O2)Oc2ccc(cc2Cl)C1O)N(C)Cc1ccccn1 (stereo not drawn) [Compound 281] | 37 µg/mL | > 64 µg/mL | > 64 µg/mL | 8 µg/mL (≈ 4.51 µM) | 16 µg/mL (≈ 9.02 µM) | > 64 µg/mL | 4 µg/mL (≈ 2.25 µM) | 32 µg/mL (≈ 18 µM) | 64 µg/mL (≈ 36.1 µM) | > 64 µg/mL | 4 µg/mL (≈ 2.25 µM) | 0.5 µg/mL (≈ 0.282 µM) | > 128 µg/mL | 32 µg/mL (≈ 18 µM) | 32 µg/mL (≈ 18 µM) | > 64 µg/mL | > 64 µg/mL | > 64 µg/mL | 8 µg/mL (≈ 4.51 µM) | ≤ 0.06 µg/mL | MIC [17]: > 64 µg/mL; MIC [18]: > 64 µg/mL; MIC [19]: > 64 µg/mL; MIC [20]: > 64 µg/mL |
| COc1ccc2ccccc2c1CNC1(C)CC(OC2C(Oc3c4cc5cc3Oc3ccc(cc3Cl)C(OC3CC(C)(N)C(O)C(C)O3)C3NC(=O)C(NC(=O)C5NC(=O)C(CC(N)=O)NC(=O)C(NC(=O)C(CC(C)C)N(C)Cc5c(OC)ccc6ccccc56)C(O)c5ccc(c(Cl)c5)O4)c4ccc(O)c(c4)-c4c(O)cc(O)cc4C(C(=O)O)NC3=O)OC(CO)C(O)C2O)OC(C)C1O (stereo not drawn) [Compound 282] | 2.6 µg/mL | 16 µg/mL (≈ 8.28 µM) | 16 µg/mL (≈ 8.28 µM) | 4 µg/mL (≈ 2.07 µM) | 16 µg/mL (≈ 8.28 µM) | > 64 µg/mL | 1 µg/mL (≈ 0.517 µM) | 8 µg/mL (≈ 4.14 µM) | 32 µg/mL (≈ 16.6 µM) | 16 µg/mL (≈ 8.28 µM) | 1 µg/mL (≈ 0.517 µM) | ≤ 0.06 µg/mL | 45 µg/mL | 16 µg/mL (≈ 8.28 µM) | 16 µg/mL (≈ 8.28 µM) | > 64 µg/mL | > 64 µg/mL | 32 µg/mL (≈ 16.6 µM) | 4 µg/mL (≈ 2.07 µM) | ≤ 0.06 µg/mL | MIC [17]: > 64 µg/mL; MIC [18]: > 64 µg/mL; MIC [19]: > 64 µg/mL; MIC [20]: > 64 µg/mL |
| CNC(CC(C)C)C(=O)NC1C(=O)NC(CC(N)=O)C(=O)NC2C(=O)NC3C(=O)NC(C(=O)NC(C(=O)O)c4cc(O)cc(O)c4-c4cc3ccc4O)C(OC3CC(C)(NCc4c5ccccc5c(C)c5ccccc45)C(O)C(C)O3)c3ccc(c(Cl)c3)Oc3cc2cc(c3OC2OC(CO)C(O)C(O)C2OC2CC(C)(NCc3c4ccccc4c(C)c4ccccc34)C(O)C(C)O2)Oc2ccc(cc2Cl)C1O (stereo not drawn) [Compound 283] | 1.7 µg/mL | 32 µg/mL (≈ 16 µM) | 4 µg/mL (≈ 2 µM) | 16 µg/mL (≈ 8 µM) | 8 µg/mL (≈ 4 µM) | 32 µg/mL (≈ 16 µM) | 4 µg/mL (≈ 2 µM) | 8 µg/mL (≈ 4 µM) | 16 µg/mL (≈ 8 µM) | 16 µg/mL (≈ 8 µM) | 0.125 µg/mL (≈ 0.0625 µM) | ≤ 0.06 µg/mL | 32 µg/mL | 4 µg/mL (≈ 2 µM) | 32 µg/mL (≈ 16 µM) | > 64 µg/mL | 32 µg/mL (≈ 16 µM) | 4 µg/mL (≈ 2 µM) | 2 µg/mL (≈ 0.999 µM) | ≤ 0.06 µg/mL | MIC [17]: 32 µg/mL (≈ 16 µM); MIC [18]: 16 µg/mL (≈ 8 µM); MIC [19]: > 64 µg/mL; MIC [20]: > 64 µg/mL |
